Patent US4341781A, “Pyridazopyridazine derivatives” (Hoffmann-La Roche Inc., priority 1979, dated 1982)

Target: T1, angiotensin converting enzyme (Oryctolagus cuniculus, UniProt P12822)
T1 sequence (P12822 34-1310): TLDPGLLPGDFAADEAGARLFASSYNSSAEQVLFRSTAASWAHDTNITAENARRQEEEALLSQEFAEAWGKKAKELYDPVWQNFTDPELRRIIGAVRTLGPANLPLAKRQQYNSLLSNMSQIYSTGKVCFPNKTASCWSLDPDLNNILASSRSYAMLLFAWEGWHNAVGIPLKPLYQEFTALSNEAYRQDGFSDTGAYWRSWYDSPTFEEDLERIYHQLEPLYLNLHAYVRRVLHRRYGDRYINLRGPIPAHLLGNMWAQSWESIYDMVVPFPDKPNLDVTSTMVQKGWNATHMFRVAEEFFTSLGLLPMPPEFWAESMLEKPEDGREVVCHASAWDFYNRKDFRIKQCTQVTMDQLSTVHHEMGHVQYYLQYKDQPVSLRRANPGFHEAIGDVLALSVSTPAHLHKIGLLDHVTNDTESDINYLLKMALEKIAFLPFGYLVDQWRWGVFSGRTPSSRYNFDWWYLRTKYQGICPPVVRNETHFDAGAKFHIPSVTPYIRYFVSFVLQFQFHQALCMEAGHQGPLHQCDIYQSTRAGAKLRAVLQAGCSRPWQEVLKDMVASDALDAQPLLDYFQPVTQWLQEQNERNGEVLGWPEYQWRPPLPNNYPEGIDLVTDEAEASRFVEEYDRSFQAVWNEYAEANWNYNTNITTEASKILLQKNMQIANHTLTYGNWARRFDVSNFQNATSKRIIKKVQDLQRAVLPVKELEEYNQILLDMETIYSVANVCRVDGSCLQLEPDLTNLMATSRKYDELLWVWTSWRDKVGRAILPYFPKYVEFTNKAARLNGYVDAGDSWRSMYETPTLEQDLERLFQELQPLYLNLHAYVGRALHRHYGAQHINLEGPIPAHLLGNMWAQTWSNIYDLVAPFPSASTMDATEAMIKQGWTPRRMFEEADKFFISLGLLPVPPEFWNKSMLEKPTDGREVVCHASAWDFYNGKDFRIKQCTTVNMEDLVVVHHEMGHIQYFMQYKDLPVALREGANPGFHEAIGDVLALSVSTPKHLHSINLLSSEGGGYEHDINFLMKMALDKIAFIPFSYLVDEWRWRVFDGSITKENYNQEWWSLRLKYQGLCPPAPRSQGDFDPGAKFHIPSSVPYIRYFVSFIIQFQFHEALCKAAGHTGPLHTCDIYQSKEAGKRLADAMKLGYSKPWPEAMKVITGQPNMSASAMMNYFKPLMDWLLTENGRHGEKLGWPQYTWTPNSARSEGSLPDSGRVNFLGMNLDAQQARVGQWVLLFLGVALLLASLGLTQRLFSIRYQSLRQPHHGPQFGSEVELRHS
Test: Inhibition of angiotensin converting enzyme in vitro (hippuryl-histidyl-leucine cleavage, Cushman and Cheung method modified by Hayakari et al.)
Type: biochemical
Conditions: substrate hippuryl-histidyl-leucine 2 mM; potassium phosphate buffer pH 8.3, 300 mM NaCl; 25 minutes at 37° C.
Procedure: The activity of the present pyridazopyridazine derivatives in inhibiting angiotensin converting enzyme in vitro can be determined by the following test.
The method used is based on the method of Cushman and Cheung (Biochem. Pharmacol., 20, 1637-1648) incorporating the modifications introduced by Hayakari, et al. (Anal. Biochem., 84, 361-369). The substrate (hippuryl-histidyl-leucine, 2 mM) is incubated with angiotensin converting enzyme in the presence or absence of various concentrations of test substance in potassium phosphate buffer (pH 8.3; 100 mM) containing sodium chloride (300 mM) for 25 minutes at 37° C. (total […] 500 μl). The reaction is terminated by the addition of 3 ml of potassium phosphate buffer (pH 8.3; 200 mM) at 0° C. 2,4,6-Trichloro-s-triazine (3%) in 1.5 ml of dioxane is added and the mixture is agitated until the yellow chromophore has developed fully. The samples are then centrifuged to remove any precipitate which has formed. The yellow chromophore formed by the reaction of the 2,4,6-trichloro-s-triazine with free hippuric acid is measured spectrophotometrically at 382 nm. IC50 values are defined as the concentration of test substance which reduces by 50% the cleavage of hippuryl-histidylleucine by angiotensin converting enzyme under the aforementioned conditions.

## O=C(O)C1CCCN2C(=O)CC(CS)C(=O)N12 (racemic) [racemic 8-(mercaptomethyl)-octahydro-6,9-dioxopyridazo[1,2-a]pyridazine-1-carboxylic acid]
  IC50: 62.5 nM
